Several values for one entry are separate records, joined by “and”; a condition that tells them apart may be missing. Equal values may be shown once. Entries after “also recorded” stand apart in the source; their conditions may differ. Where a name gives a salt, the structure may show the parent alone.
What was measured:
TLR7 [1] = molecular target: T1, TLR7 (Mus musculus, UniProt P58681); assay: TLR7 inhibition (R848-induced serum IFN-α) by intraperitoneal administration in mice; format: in vivo, mice (C57BL/6N); details: Example 13
T1 construct: from tissue; host or cells: whole animal, C57BL/6N mice (serum IFN-α after R848)
T1 sequence (P58681 27-1050): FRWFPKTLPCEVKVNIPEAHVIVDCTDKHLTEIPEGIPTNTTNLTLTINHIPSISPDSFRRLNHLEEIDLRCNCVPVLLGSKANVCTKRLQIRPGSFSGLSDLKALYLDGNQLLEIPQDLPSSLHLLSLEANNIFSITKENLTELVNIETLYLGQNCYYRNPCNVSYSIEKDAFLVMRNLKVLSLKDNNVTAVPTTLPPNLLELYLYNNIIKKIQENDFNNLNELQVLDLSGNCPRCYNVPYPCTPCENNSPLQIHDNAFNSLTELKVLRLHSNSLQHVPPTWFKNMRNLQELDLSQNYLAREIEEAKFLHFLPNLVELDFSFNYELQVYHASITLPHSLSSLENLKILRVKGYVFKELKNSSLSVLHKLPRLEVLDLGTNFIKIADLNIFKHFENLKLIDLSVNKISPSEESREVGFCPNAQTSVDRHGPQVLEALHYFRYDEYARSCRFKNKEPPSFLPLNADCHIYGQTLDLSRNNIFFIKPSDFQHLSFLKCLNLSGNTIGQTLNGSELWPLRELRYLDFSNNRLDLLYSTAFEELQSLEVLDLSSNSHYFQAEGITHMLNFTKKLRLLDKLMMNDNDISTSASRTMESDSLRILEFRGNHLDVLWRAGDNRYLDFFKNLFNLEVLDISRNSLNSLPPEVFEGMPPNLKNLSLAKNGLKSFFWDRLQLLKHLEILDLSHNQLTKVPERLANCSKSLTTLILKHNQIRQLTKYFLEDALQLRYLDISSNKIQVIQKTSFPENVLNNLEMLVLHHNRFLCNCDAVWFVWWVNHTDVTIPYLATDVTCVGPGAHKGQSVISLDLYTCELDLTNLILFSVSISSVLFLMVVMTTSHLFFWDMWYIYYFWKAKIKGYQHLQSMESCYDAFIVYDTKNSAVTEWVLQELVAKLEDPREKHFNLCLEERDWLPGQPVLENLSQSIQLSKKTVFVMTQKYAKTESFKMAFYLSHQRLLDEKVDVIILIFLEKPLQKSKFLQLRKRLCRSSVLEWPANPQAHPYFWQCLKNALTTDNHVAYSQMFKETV
Experimental: Normal mice (C57BL/6N, 11 weeks old, female) were administered B2-24-4-5A·HCOOH (1, 5, 10, 100 and 1000 μg) or hydroxychloroquine sulfate (HCQ, 1000 μg) as a comparison drug intraperitoneally, followed by 5 μg of R848 after 30 minutes. The solvent was saline solution. 1 hour after R848 administration, blood was collected and the concentration of IFN-α in the serum was quantified using ELISA (used kit: Mouse IFN alpha Platinum ELISA (trade name), eBioscience). The plots in FIG. 7 represent the data for each individual, each bold line represents the mean value of each group data, and each error bar represents the standard error of each group data.
The same method as in Example 13 was used to study the TLR7 inhibition effect of intraperitoneal administration of B2-24-4·HCl, B2-24-4-5A or B2-24-4-5A·HCOOH in mice. B2-24-4·HCl, B2-24-4-5A and B2-24-4-5A·HCOOH were administered at a dose of 10 μg. The plots in FIG. 8 represent the data for each individual, each bold line represents the mean of each group data, and each error bar represents the standard error of each group data.

TLR7 [2] = molecular target: T2, TLR7 (Homo sapiens, UniProt Q9NYK1); assay: TLR7 inhibitory effect (IL-6) in PBMCs from patients with systemic lupus erythematosus; format: cell-based; details: SLE patient PBMCs
T2 construct: PBMCs were isolated from 7 mL of blood collected from patients with systemic lupus erythematosus; endogenous in cells; host or cells: PBMCs from patients with systemic lupus erythematosus
T2 sequence (Q9NYK1 27-1049): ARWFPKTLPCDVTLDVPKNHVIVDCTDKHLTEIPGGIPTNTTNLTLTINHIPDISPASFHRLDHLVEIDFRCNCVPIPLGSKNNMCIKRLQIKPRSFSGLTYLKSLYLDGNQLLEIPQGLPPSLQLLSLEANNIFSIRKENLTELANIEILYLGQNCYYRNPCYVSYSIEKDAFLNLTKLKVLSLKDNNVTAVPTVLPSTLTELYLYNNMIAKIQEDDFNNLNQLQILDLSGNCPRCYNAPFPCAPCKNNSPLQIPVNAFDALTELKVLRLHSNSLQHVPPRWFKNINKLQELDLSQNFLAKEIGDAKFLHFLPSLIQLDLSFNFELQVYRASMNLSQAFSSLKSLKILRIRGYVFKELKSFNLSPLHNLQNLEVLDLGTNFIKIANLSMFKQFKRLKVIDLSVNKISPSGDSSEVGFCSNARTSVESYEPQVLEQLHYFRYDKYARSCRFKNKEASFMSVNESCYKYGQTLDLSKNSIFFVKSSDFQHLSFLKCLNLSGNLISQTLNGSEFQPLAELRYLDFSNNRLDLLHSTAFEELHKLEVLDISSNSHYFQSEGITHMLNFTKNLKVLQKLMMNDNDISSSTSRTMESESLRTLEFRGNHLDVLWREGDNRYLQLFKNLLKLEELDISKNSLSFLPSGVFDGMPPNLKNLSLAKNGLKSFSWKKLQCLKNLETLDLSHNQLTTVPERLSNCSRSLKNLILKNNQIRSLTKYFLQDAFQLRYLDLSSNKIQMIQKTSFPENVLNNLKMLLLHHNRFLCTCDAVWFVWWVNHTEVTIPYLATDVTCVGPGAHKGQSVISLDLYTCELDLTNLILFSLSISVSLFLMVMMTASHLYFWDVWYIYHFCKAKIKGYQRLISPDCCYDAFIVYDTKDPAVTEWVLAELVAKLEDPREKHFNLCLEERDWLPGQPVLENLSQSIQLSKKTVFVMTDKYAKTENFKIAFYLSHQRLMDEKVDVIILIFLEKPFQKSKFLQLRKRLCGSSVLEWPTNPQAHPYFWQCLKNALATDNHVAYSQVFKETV
Experimental: The TLR7 inhibitory effect of B2-24-4-5A·HCOOH on PBMCs derived from patients with systemic lupus erythematosus was studied. PBMCs were isolated from 7 mL of blood collected from patients with systemic lupus erythematosus. Isolated PBMCs were spread into each well of a 96-well plate containing RPMI 1640 medium containing 10% (v/v) fetal calf serum (FCS), penicillin, streptomycin, L-glutamic acid, and 2-mercaptoethanol at 0.5×10^5/100 μL and incubated at 37° C. in the presence of 5% (v/v) CO2. 50 μL of B2-24-4-5A·HCOOH, B2-24-4·HCl or the comparative drug hydroxychloroquine sulfate (HCQ) was added to each well to achieve a final concentration of 0.1 μM, 0.5 μM, 1 μM, 5 μM, 10 μM or 50 μM and incubated for 30 minutes. The TLR7 ligand, Gardiquimod (Invivogen), was added at a final concentration of 3 μg/mL and incubated for 24 hours. After incubation, all culture media were collected and the concentration of IL-6 in the culture medium was quantified using ELISA (used kit: human IL-6 DuoSet ELISA (trade name), manufactured by R&D Systems).

[3] = system: systemic lupus erythematosus model mice (NZBWF1); assay: Therapeutic effect in mouse model of spontaneous systemic lupus erythematosus; format: in vivo
Experimental: Systemic lupus erythematosus model mice (NZBWF1, 20 weeks old, female, n=55) were divided into saline-administered group (control, n=25), B2-24-4-5A·HCOOH-administered group (n=10), B2-24-4·HCOOH-administered group (n=5) and HCQ-administered group (n=15). The saline-administered group received saline (100 l) orally once a day, every day; the B2-24-4-5A·HCOOH-administered group received 10 mg/kg of B2-24-4-5A·HCOOH (100 l) orally once a day, every day; the B2-24-4·HCOOH-administered group received 10 mg/kg of B2-24-4·HCOOH (100 l) orally once a day, every day; the HCQ-administered group received 10 mg/kg of HCQ (100 l) orally once a day, every day. Fifteen weeks after the start of treatment, urine was collected from surviving mice in the saline-administered group (control, n=17), B2-24-4-5A·HCOOH-administered group (n=10), B2-24-4·HCOOH-administered group (n=5), and HCQ-administered group (n=12), and the mice were euthanized. After euthanasia, blood was drawn from the abdominal aorta of the mice, and the kidneys and spleen were removed.
Mice that died of natural causes during the 15-week period from the start of treatment were counted as deaths, and survival analysis was performed using the Kaplan Meier method. Blood collected from the abdominal aorta of each mouse, excluding the deceased cases, was centrifuged and serum was prepared. Determination of urea nitrogen and creatinine levels in serum was entrusted to Oriental Yeast Co. Albumin levels in urine were determined by ELISA (used kit: Levis Urinary Albumin-Mouse (S-type) (trade name) (Fujifilm Wako Shibayagi Corporation)). The removed kidneys were fixed with 4% (w/v) paraformaldehyde, and immunohistochemical staining was entrusted to Morpho Technology, Inc. In PAS-stained kidney tissue sections, histological findings of 100 glomeruli were evaluated. For increased cells and substrate in the mesangial area, endothelial cell swelling and cellular infiltration of the capillary lumen (intratubular proliferation), and glomeruli with inflammatory crescents (extratubular proliferation), each of the 100 glomeruli was assigned a grade from grade 0 to grade 2 according to severity and scored on a 6-point scale.
FIG. 10F is a photograph showing C3 deposition in the glomeruli of a mouse (#1) in the saline-administered group, a mouse (#10) in the B2-24-4-5A·HCOOH-administered group, a mouse (#4) in the B2-24-4·HCOOH-administered group and a mouse (#14) in the HCQ-administered group. […] In the renal tissue sections of a mouse (#1) in the saline-administered group, findings of active glomerulonephritis such as diffuse mesangial and intratubular proliferation were observed. […] The plots in FIGS. 10B, 10C, and 10D show the data for each individual, each bold line is the mean of the group data, and each error bar standard error. Scale bars in FIGS. 10E and 10F represent 100 μm. […]

[4] = molecular target: B lymphocyte stimulator (BLyS) (Homo sapiens, UniProt Q9Y275); details: after 52 weeks of intravenous administration (10 mg/kg); cited from earlier work
B lymphocyte stimulator (BLyS), sequence (Q9Y275 134-285 limits assumed): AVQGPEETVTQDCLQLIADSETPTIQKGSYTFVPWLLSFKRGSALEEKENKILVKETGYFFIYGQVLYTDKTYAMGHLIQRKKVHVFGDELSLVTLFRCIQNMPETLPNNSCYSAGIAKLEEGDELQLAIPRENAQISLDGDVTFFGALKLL

With `C=C(C)[C@@H]1CC[C@]2(COC(=O)C2)C[C@H]1c1ccc(CN2CCNCC2)cc1` [B2-24-4-5A] the “Order of strength of the effect on IFN-α production” value (TLR7 [1]; 10 μg, FIG. 8) was “stronger with B2-24-4-5A·HCOOH, B2-24-4-5A and B2-24-4·HCl in that order” and the “IFN-α production induced by R848” value (TLR7 [1]; dose of 10 μg intraperitoneally) was “attenuated”.

With `CCN(CCO)CCCC(C)Nc1ccnc2cc(Cl)ccc12` (centres unmarked) [HCQ, hydroxychloroquine sulfate] the “Order of strength of the effect on IL-6 production” value (TLR7 [2]; FIG. 4) was “stronger for B2-24-4·HCl, B2-24-4-5A·HCOOH, and HCQ, in that order”, the “IL-6 production induced by gardiquimod stimulation” value (TLR7 [2]; 0.1-50 μM, Gardiquimod 3 μg/mL, 24 hours) was “attenuated” and the “Surviving mice fifteen weeks after the start of treatment” value ([3]; 10 mg/kg orally once a day, groups started with n=10, n=5, n=15 (HCQ)) was 12. The Tubulo-interstitial inflammation ([3]; per mouse) was “Not found; also recorded: Found”, the score ([3]; per mouse, histological score on a 6-point scale) was 1.74 and 0.70 and 0.00 and 1.64 and 0.30 and 2.58 and 0.07 and 0.14 and 3.14 and 0.37 and 2.19 and 0.18 and the “Inside 0” value ([3]; per mouse, of 100 glomeruli, endothelial cell swelling and cellular infiltration of capillary lumen, Grade 0) was 43 and 87 and 100 (2×) and 38 and 95 and 12 and 99 and 15 and 96 and 22 and 98. The “Inside 1” value ([3]; per mouse, of 100 glomeruli, endothelial cell swelling and cellular infiltration of capillary lumen, Grade 1) was 38 and 13 and 0 (2×) and 47 and 5 and 36 and 1 and 64 and 4 and 58 and 2, the “Inside 2” value ([3]; per mouse, of 100 glomeruli, endothelial cell swelling and cellular infiltration of capillary lumen, Grade 2) was 19 and 0 (7×) and 15 and 52 and 21 and 20 and the “Outside 0” value ([3]; per mouse, of 100 glomeruli, glomerulus with semilunar, Grade 0) was 100 (10×) and 53 and 96. For the same compound, the “Outside 1” value ([3]; per mouse, of 100 glomeruli, glomerulus with semilunar, Grade 1) was 0 (10×) and 26 and 4, the “Outside 2” value ([3]; per mouse, of 100 glomeruli, glomerulus with semilunar, Grade 2) was 0 (11×) and 21 and the Mes0 ([3]; per mouse, of 100 glomeruli, increase in cells and substrates in the mesangium region, Grade 0: None, 10 mg/kg orally, 15 weeks, 10 mg/kg) was 15 and 43 and 100 and 16 and 75 and 8 and 93 and 87 and 7 and 68 and 20 and 84. For the same compound, the Mes1 ([3]; per mouse, of 100 glomeruli, mesangium region, Grade 1: Moderate or lower) was 72 and 57 and 0 and 81 and 25 and 66 and 7 and 13 and 46 and 31 and 43 and 16 and the Mes2 ([3]; per mouse, of 100 glomeruli, mesangium region, Grade 2: Moderate or higher) was 13 and 0 (6×) and 3 and 26 and 47 and 1 and 37.

For belimumab, the Responder rate [4] is given as 54%.

— patent publication US12410157B2, “Compound useful as toll-like receptor 7 activation inhibitor” (TOYAMA PREFECTURAL UNIVERSITY, priority 2020, dated 2025)
